≈ marks a conversion by molar mass, not a printed value. Counter-ions that a name gives are not always drawn. Like-named read-outs stand apart in the source and are kept apart here.
What was measured:
[1] = test system: E. coli (NCTC 1048); experiment: MIC values (minimum inhibitory concentration) against a sample E.coli organism; format: cell-based
Excerpt: (§1) The following Examples illustrate the preparation of compounds of the invention and intermediates thereto.

[2] = test system: S. aureus (Oxford); experiment: MIC values (minimum inhibitory concentration) against a sample S.aureus organism; format: cell-based; details: in vitro
Excerpt: as §1

[3] = Staphylococcus aureus, read-out: MIC
[4] = Escherichia coli, NCTC1048, in vitro, E. coli (NCTC 1048), read-out: MIC

Row | Molecule | MIC ([1]; Escherichia coli, NCTC1048) | MIC [2, 3] | MIC ([1]; in vitro, E. coli (NCTC 1048)) | MIC [2] | MIC [1, 4]
1 | CO/N=C(\C(=O)N[C@@H]1C(=O)N2C(C(=O)[O-])=C(C3CCCCO3)CS[C@H]12)c1csc(N)n1.[Na+] (mixture of isomers) [Example 3, Sodium (6R,7R)-7-[2-(2-Aminothiazol-4-yl)-2-(Z)-methoxyiminoacetamido]-3-[(RS) -tetrahydropyran-2-yl]-ceph-3-em-4-carboxylate] | 2 µg/mL | 1 µg/mL |  |  | 
2 | CO/N=C(\C(=O)N[C@@H]1C(=O)N2C(C(=O)[O-])=C(C3CC[C@@H](C)O3)CS[C@H]12)c1csc(N)n1.[Na+] (mixture of isomers) [Example 27, Sodium (6R,7R)-7-12-(2-aminothiazol-4-yl)-2-(Z)-methoxy-iminoacetamidol-3-[(5R,2SR)-5-methyltetrahydrofuran-2-yl]ceph-3-em-4-carboxylate] |  |  | 4.00 µg/mL | 1.00 µg/mL | 
3 | CO/N=C(\C(=O)N[C@@H]1C(=O)N2C(C(=O)O)=C(C3CCCO3)CS[C@H]12)c1csc(N)n1 (stereo partly drawn) [Example 1, Sodium (6R,7R)-7-[2-(2-Aminothiazol-4-yl)-2-(Z)-methoxy-iminoacetamido]-3-[(RS)-tetrahydrofuran-2-yl]ceph-3-em-4-carboxylate] |  | 1 µg/mL |  |  | 0.5 µg/mL
4 | Nc1nc(/C(=N/O)C(=O)N[C@@H]2C(=O)N3C(C(=O)O)=C(C4CCCO4)CS[C@H]23)cs1 (stereo partly drawn) [Example 5, (6R,7R)-7-[2-(2-Aminothiazol-4-yl)-2-(Z)-hydroxyiminoacet-amido]-3-[(RS)-tetrahydrofuran-2-yl]ceph-3-em-4-carboxylic acid] |  | 0.25 µg/mL (≈ 0.569 µM) |  |  | 0.5 µg/mL (≈ 1.14 µM)
5 | CO/N=C(\C(=O)N[C@@H]1C(=O)N2C(C(=O)O)=C([C@@H]3CCCO3)CS[C@H]12)c1csc(N)n1 [Example 7, Sodium (6R,7R)-7-[2-(2-aminothiazol-4-yl)-2-(Z)-methoxy-iminoacetamido]-3-[(S)-tetrahydrofuran-2-yl]ceph-3-em-4-carboxylate] |  | 1 µg/mL |  |  | 0.5 µg/mL
6 | CO/N=C(\C(=O)N[C@@H]1C(=O)N2C(C(=O)O)=C([C@H]3CCCO3)CS[C@H]12)c1csc(N)n1 [Example 9, sodium (6R,7R)-7-[2-(2-aminothiazol-4-yl)-2-(Z)-methoxy-iminoacetamido]-3-[(R)-tetrahydrofuran-2-yl]ceph-3-em-4-carboxylate] |  | 0.5 µg/mL |  |  | 1 µg/mL
7 | CO/N=C(\C(=O)N[C@@H]1C(=O)N2C(C(=O)O)=C(C3CCOC3)CS[C@H]12)c1csc(N)n1 (some centres unmarked) [Example 13] |  | 4 µg/mL (≈ 8.82 µM) |  |  | 1 µg/mL (≈ 2.21 µM)
8 | COC[C@@H]1CCC(C2=C(C(=O)O)N3C(=O)[C@@H](NC(=O)/C(=N\OC)c4csc(N)n4)[C@H]3SC2)O1 (stereo partly drawn) [Example 17, sodium (6R,7R)-7-[2-(2-aminothiazol-4-yl)-2-(Z)-methoxyiminoacetamido]-3-(5-methoxymethyltetrahydrofuran-2-yl)ceph-3-em-4-carboxylate] |  | 2 µg/mL |  |  | 1 µg/mL
9 | CC/C=C(\C(=O)N[C@@H]1C(=O)N2C(C(=O)O)=C([C@@H]3CCCO3)CS[C@H]12)c1csc(N)n1 [Example 18, sodium (6R,7R)-7-[2-(2-aminothiazol-4-yl)-(Z)-pent-2-enamido]-3-[(S)-tetrahydrofuran-2-yl]ceph-3-em-4-carboxylate] |  | 1 µg/mL |  |  | 16 µg/mL
10 | Nc1nc(/C(=N/OCC(=O)O)C(=O)N[C@@H]2C(=O)N3C(C(=O)O)=C(C4CCCO4)CS[C@H]23)cs1 (stereo partly drawn) [Example 21, (6R,7R)-7-[2-(2-aminothiazol-4-yl)-2-(Z)-carboxymethoxy-iminoacetamido]-3-[(RS)-tetrahydrofuran-2-yl]-ceph-3-em-4-carboxylic acid, disodium salt] |  | 8 µg/mL |  |  | 0.25 µg/mL
11 | N[C@@H](C(=O)N[C@@H]1C(=O)N2C(C(=O)[O-])=C([C@@H]3CCCO3)CS[C@H]12)c1ccc(O)cc1.[Na+] [Example 22, Sodium (6R,7R)-7-[(R)-2-Amino-2-(4-hydroxyphenyl)acetamido]-3-[(S)-tetrahydrofuran-2-yl]ceph-3-em-4-carboxylate] | 8 µg/mL | 0.25 µg/mL |  |  | 
12 | CO/N=C(\C(=O)N[C@@H]1C(=O)N2C(C(=O)O)=C([C@@H]3CCCO3)CS[C@H]12)c1ccco1 [Example 28, Sodium (6R,7R)-7-[2-(furan-2-yl)-2-(Z)-methoxyimino-acetamido]-3-[(S)-tetrahydrofuran-2-yl]ceph-3-em-4-carboxylate] |  | 0.5 µg/mL |  |  | > 32 µg/mL
13 | sodium 7- [2- (2-aminothiazol-4-yl)-2- (Z)-methoxyimino-acetamido]-3- (tetrahydrofuran-2-yl) -1-carba-1-dethiaceph-3-em-4-carboxylate [Example 24] |  |  | 0.12 µg/mL | 1.00 µg/mL | 
